Data set [1] concerns Consensus hairpin DNA. Description: Piper electrophoretic mobility shift assay. The format is binding. The following applies: 5 μM of PIPER. On the procedure: (§1) The dotted line represents residues that are disordered in the crystal structure. The Exd residue R2C, is the unstructured amino acid to which the Cy3 dye is attached. […] The G-rich DNA in the absence of Exd has a band (bottom arrow), which is higher than the Consensus DNA shift with Exd and polyamide.
(§2) Piper Electrophoretic Mobility Shift Assay (FIG. 6D). The G-rich and Consensus hairpin DNA (same DNA as used in Hairpin Induction for EMSA) were incubated with increasing PIPER (Humphrey, W., Dalke, A. & Schulten, K. (1996) J. Mol. Graphics 14, 33-38) concentrations. PIPER final concentrations were […]. The gels were run and processed as above using an 8% acrylamide/3% glycerol gel with 0.5×TBE.
(In general: Mobility shift assays separate free from complexed probe on a gel.)

Data set [2] has as its system G-rich hairpin DNA. In words: Piper electrophoretic mobility shift assay. The following applies: 5 μM of PIPER. The format is binding. On the procedure:
as §1, §2

Data set [3] concerns DNA hairpin target array. In words: CSI array binding assay of Cy3-labeled Exd alone or with polyamide-peptide conjugates. To be noted: for Motifs emerging from polyamide-Exd CSI data: in addition to G-stretches, Exd 20 nM, polyamide 50 nM. On the procedure:
Protein Binding: The microarrays were washed with 150 mM K-glutamate, 50 mM HEPES pH 7.5, 5% glycerol (reaction buffer), for 5 minutes. […] This solution was added to the hybridization chamber and incubated for 30 minutes. Subsequently, the microarrays were washed with reaction buffer and scanned.
To determine the sequence specificity of Exd, we labeled it with Cy3 at a unique cysteine residue on an unstructured portion of the protein (FIG. 6) (Passner, J. M., Ryoo, H. D., Shen, L., Mann, R. S. & Aggarwal, A. K. (1999) Nature 397, 714-719).
Array design for Hox/Exd Cooperative Binding Assay. The duplex DNA sequences are designed as self-complementary palindromes interrupted at the center by a TCCT sequence to facilitate the formation of DNA hairpins (FIG. 7). The 34 residue oligonucleotide is synthesized directly on the glass surface using a maskless array synthesizer (Singh-Gasson, S., Green, R. D., Yeu, Y., Nelson, C., Blattner, F., Sussman, M. R., Cerrina, F. (1999) Nat. Biotechnol. 17, 974-978) that can readily create up to 786,000 spatially resolved features. The unimolecular construction of duplex DNA allows the array to be reused several times without appreciable loss of information. After inducing hairpin formation, we find that greater than 95% of the oligonucleotides in the array form duplexes. In our hairpin design, we added three constant base pairs on either side of the 8 base pairs that were permuted (N′-8).
PA2 and PA3 (ImImPy*Py-γ-ImPyPyPy-β-Dp) are designed to target the sequence 5′-WGWCCW-3′. […] PA2 and PA3 differ solely by a single methylene in the linker connecting the Exd binding peptide to the polyamide (FIG. 8A) (Hauschild, K. E., Metzler, R. E., Arndt, H. D., Moretti, R., Raffaelle, M., Dervan, P. B., Ansari, A. Z. (2005) Proc. Natl. Acad. Sci. U.S.A. 102, 5008-5013). Since these polyamides are not fluorescently labeled, we detect cognate sites bound cooperatively by synthetic Hox mimics and Exd, as well as sites bound by Exd alone.
The raw array data for the above experiments were treated as described in Example 2. […] The Exd binding motif is 5′-NGAN-3′, which is consistent with the structural and genetic studies of Hox-Exd cognate sites (White, R. A., Aspland, S. E., Brookman, J. J., Clayton, L. & Sproat, G. (2000) Mech. Dev. 91, 217-226). In other words, the 5′-GA-3′ dinucleotide is the only required sequence determinant for Exd binding to DNA. Remarkably, the array identified the differences in the arrangement of polyamide and Exd binding sites due to ˜1.25 Å difference in the linker length between PA2 and PA3 (FIG. 8C). The other important result that emerges is that cooperative ternary assembly with Exd stabilizes binding of synthetic Hox mimics to truncated sites (5′-WGWC-3′). This is often seen in nature, where cooperative assembly of transcription factors utilizes sub-optimal binding sites to ensure that only a higher order complex can efficiently bind to a regulatory element (Thanos, D. & Maniatis, T. (1996) Methods Enzymol. 274, 162-173; Ptashne, M. & Gann, A. Genes and Signals. (2002) CSHL Press, New York).

Data set [4] relates to 8-position sequence variation DNA hairpin target array. Description: CSI array binding assay of PA1 (Cy3 fluorescence intensity). The source says: Hairpin Target CSI Microarray. Each hairpin target was composed of a central permuted 8 base pair region with X^1 with a three base pair CGC sequence anchor region flanking either end, with a complementary sequence on X^2. A fluorescently tagged nucleic acid binding assay molecule was applied to the microarray to generate the nucleic acid binding profile for that assay molecule. Analysis of the array signal intensity gives rise to a reference grid showing the binding intensity output for the array. High intensity features indicate tight binding of the assay molecule to that specific target sequence.
Binding Assay: Microarray slides were immersed in 1×PBS (Phosphate Buffered Saline) and placed in a 90° C. water bath for 30 minutes to induce hairpin formation of the oligonucleotides. Slides were then transferred to a tube of non-stringent wash buffer (Saline-Sodium Phosphate-EDTA Buffer, 0.01% v/v Tween-20) and scanned to check for low background (<200 intensity). Microarrays were scanned using a ScanArray 5000 and the image files extracted with GenePix Pro version 3.0.
Polyamide binding: Microarrays prepared as above were placed in the microarray hybridization chamber and washed twice with non-stringent wash buffer. Polyamide was diluted to 5 nM in Hyb buffer (100 mM MES, 1 M NaCl, 20 mM EDTA, 0.01% v/v Tween-20). Polyamide (5 nM) was then added to the hybridization chamber and incubated at room temperature overnight (16 hours). Finally, the microarrays were washed twice with non-stringent wash buffer and scanned.
The array-to-array variability was very low with an average correlation coefficient of 0.88 (FIG. 4A). […] The duplicate features within an array and replicate features between arrays were averaged together to give finalized intensities. These averaged intensities were then converted into Z-scores [z=signal−meant/standard deviation] to reflect the signal-to-noise ratio.
Data Processing: For each replicate, global mean normalization was used to ensure the mean intensity of each microarray was the same. Local mean normalization (Colantuoni, C., Henry, G., Zeger, S. & Pevsner, J. (2002) Bioinformatics 18, 1540-1541) was then used to ensure the intensity was evenly distributed throughout each sector of the microarray surface. Outliers between replicate features were detected using the Q-test at 90% confidence and filtered out. The replicates were then quantile normalized (Bolstad, B. M., Irizarry, R. A., Astrand, M. & Speed, T. P. (2003) Bioinformatics 19, 185-193) in order to account for any possible non-linearity between arrays. Duplicate features were then averaged together. The median of the averaged features was subtracted to account for background.
Z-scores were calculated as |signal−median|/standard deviation. Due to the right-handed tail effect, standard deviation of the background signal was based upon the standard deviation from the median of all signals less than the median. The relationship of Z-score to P-value can be found in Table 1, below. Motifs were then found by running several motif finding algorithms (Bailey, T. L. & Elkan, C. (1994) Proc. of the 2nd Intl. Conference on Intelligent Systems for Mol. Biol., AAAI Press, Menlo Park, Calif., 28-36; Hughes, J. D., Estep, P. W., Tavazoie, S. & Church, G. M. (2000) J. Mol. Biol. 296, 1205-1214; Liu, X. S., Brutlag, D. L. & Liu, J. S. (2002) Nat. Biotechnol. 20, 835-839) on sequences in the highest Z-score bin. Logos (Schneider, T. D. & Stephens, R. M. (1990) Nucl. Acids Res. 18, 6097-6100) of each motif were then created by using sequences from the highest Z-score bin that contained the motif.

The test system of data set [5] is DNA cognate sites (sequences used in the footprints). The following applies: footprinting, cited from earlier work.
The subject of data set [6] is G-rich hairpin DNA. In words: Hairpin electrophoretic mobility shift assay with Exd and polyamide. The following applies: upon addition of Exd (100 nM). The format is binding. The protocol: as §1
(§3) Hairpin Induction for Electrophoretic Mobility Shift Assay (Supplementary Figure S4B). Hairpin DNA was formed by heating synthesized ssDNA to 95° C. for 5 minutes and then rapidly cooling them on ice. The 34mer DNA […] were then labeled with ^32P (as per standard methods). For the hairpin electrophoretic mobility shift assays the concentrations of polyamide used were 50 nM, and Exd was present at a concentration of 100 nM. The reactions were performed in the above buffer and the gels were then run as before with the following exceptions: the gels were 8% acrylamide/3% glycerol gel with 0.5×TBE.

The target in data set [7] is T1, Extradenticle (Exd) homeodomain (Drosophila melanogaster, UniProt P40427 SEQ:1-63).
T1 sequence: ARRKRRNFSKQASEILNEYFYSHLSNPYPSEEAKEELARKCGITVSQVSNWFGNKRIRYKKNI
In words: EMSA; 100 nM Exd; band completely shifted; polyamide has no effect; K-glutamate 150 mM, HEPES pH 7.5. The following applies: tags: none stated for EMSA; label: 32P; hairpin design; likely G-quadruplex. The protocol:
Electrophoretic Mobility Shift Assays: 40mer DNA sequences labeled with ³²P (as per standard methods) were used in all reactions. Reactions were performed in a buffer composed of 150 mM Potassium Glutamate, 50 mM HEPES pH=7.5, 2 mM DTT, 100 ng/μL of BSA, 10% DMSO, and 10% glycerol. For the binding tests, polyamide-peptide conjugates (50 nM final concentration) and ³²P-DNA were incubated together for 30 minutes at 4° C. Exd was then added to bring the reaction volume to 20 μL. Exd final concentrations were 0.033, 0.1, 0.33, 1, 3.3, 10, 33, and 100 nM. These reactions were incubated at 4° C. for 1 hour and then 15 μL was loaded onto a pre-run 10% acrylamide/3% glycerol gel (1×TBE).
as §3, with “³²P” for “^32P”

Read-outs that look alike come from different tables or passages of the source.

As for `O=C1c2ccc3c4ccc5c6c(ccc(c7ccc(c2c37)C(=O)N1CCN1CCCCC1)c64)C(=O)N(CCN1CCCCC1)C5=O` [PIPER, N,N-Bis[2-(1-piperidino)ethyl]-3,4,9,10-perylenetetracarboxylic diimide], the “Aggregation of DNA (immobility from the well)” value in data set [1] is “does not”; in data set [2] it was “significant aggregation”.

Regarding ImImPy*Py-γ-ImPyPyPy-β-Dp [PA2], in data set [3], the “Motifs emerging from polyamide-Exd CSI data” value is listed as “three clear motifs”.

In the case of ImImPy*Py-γ-ImPyPyPy-β-Dp [PA3], the “Motifs emerging from polyamide-Exd CSI data” value in data set [3] is recorded as “only two of those motifs”.

Turning to ImPy*PyPy-γ-ImPyPyPy-β-Dp [PA1], the Intensity was determined as 19715 in data set [4] (Data Point A, average of all features containing ATGTACAT); 10952 in data set [4] (Data Point B, average of all features containing AGTACT); 3035.5 in data set [4] (Data Point C, average of all features containing ATCTACAT); 2073.25 in data set [4] (Data Point D, average of all features containing ATATACAT); 1426.5 in data set [4] (Data Point E, average of all features containing ATGTATTT). The “Intensity relative to other permutations of the consensus sequence” value in data set [4] (all sequences containing 5′-WWGATCWW-3′) was “significantly lower intensities”. Moreover, the “Effect of substitution on binding” value was “retains its ability to bind PA1” in data set [4] (double substitution at positions 3 and 6 to W (A/T stretch)); “significantly attenuates, but does not abolish binding” in data set [4] (replacing one of the S residues at positions 6 (or 3′) with a W); “only subtly decreases binding” in data set [4] (substituting an S (G or C) at position 8); “nearly abolishes binding” in data set [4] (substituting any other position that prefers a W with an S residue). For the same molecule, the Ka in data set [5] (Data Point A, sequence ATGTACAT) was 70 10^9 M^−1; in data set [5] (Data Point B, sequence AGTACT), 37 10^9 M^−1; in data set [5] (Data Point C, sequence ATCTACAT), 3.2 10^9 M^−1; in data set [5] (Data Point D, sequence ATATACAT) it was 2.8 10^9 M^−1; in data set [5] (Data Point E, sequence ATGTATTT), 0.41 10^9 M^−1.

B1: Exd: transcription factor essential in Drosophila development; used Cy3-labeled (Exd R2C, residues 1-88) on the array (protein, UniProt P40427 1-88, looked up, fragment)
chain: MEDPNRMLAHTGGMMAPQGYGLSGQDDGQNAGSENEVRKQKDIGEILQQIMSISEQSLDEAQARKHTLNCHRMKPALFSVLCEIKEKT
modifications: Cy3 label
notes: transcription factor essential in Drosophila development; used Cy3-labeled (Exd R2C, residues 1-88) on the array
For B1, the Exd binding motif in data set [3] (Cy3-labeled Exd with PA2 or PA3) was 5′-NGAN-3′. The Sequence preference entry in data set [3] (Exd alone) is reported as “unexpected preference for stretches of consecutive G-residues”. In data set [3] (Exd alone, 0.2-200 nM), the Sequence-specific binding entry is on record as “little sequence-specific binding”. Also, the “Band shift of G-rich DNA” value in data set [6] is “completely shifted”.

CGCCCCCCCCCCGCTCCTGCGGGGGGGGGGCGTTTT (structured_DNA) [G-rich hairpin DNA]: the binding result in data set [7] is given as “binds”.
